Read-outs that look alike come from different tables or passages of the source.
Experiments:
786-0 cells = assay: VEGF ELISA Assay; assay type: cell-based; details: Homo sapiens
Method: Each concentration had duplicated wells. About 20 hours later, medium was removed by suction and each well was supplied with 180 μL of growth medium. About 20 μl freshly-made 10× compound stocks were added to each well. […] The EC50 was calculated by GraphPad Prism using the dose-response-inhibition (four parameter) equation. The cell seeded plate was then subjected to CellTiter-Glo luminescence cell viability assay (Promega) by adding 50 μL of Celltiter Glo reagent into each well and shaking the plate for 8 minutes at 550 rpm (Thermomixer R, Eppendorf) then read luminescence signal in plate reader (3 second delay, 0.5 second/well integration time, Synergy 2 multi Detection Microplate reader) immediately.

786-O-Hif-Luc cells = assay: Luciferase Assay; assay type: cell-based; details: read-out: Luciferase EC50
Method: A pool of infected cells were then selected against 2 μg/mL of puromycin (P8833, Sigma) for 10 days followed by limited dilution to select single clones.
Each concentration was tested in triplicate. After about 24 hours, luciferase activity was determined using ONE-Glo Luciferase Assay Reagent (E6110, Promega) following the manufacturer's recommended procedure. EC50 were calculated by using Dotmatics software.

[1] = biological target: T1, HIF-2α HIS TAG-PASB Domain (Homo sapiens, UniProt Q99814); assay: HIF-2α Scintillation Proximity Assay (SPA); assay type: binding; details: 100 nM HIF-2α HIS TAG-PASB Domain
T1 construct: 100 nM HIF-2α HIS TAG-PASB Domain
Method in brief: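 IC50 values rest on percent inhibition, where the sample signal is scaled between high and low controls. Wells contain about 100 μL: compound dispensed as 2 μL of DMSO solution, 88 μL protein-probe mix and 10 μL of beads.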

[2] = 786-0, 786-0 cells, VEGFA concentration in cell culture medium, read-out: VEGF ELISA EC50
[3] = 24 h, 786-O-Hif-Luc cells, about 24 hours
[4] = 150 nM Compound 211 probe, read-out: SPA IC50
[5] = 786-0 cells, VEGFA concentration in cell culture medium, read-out: VEGF ELISA EC50
[6] = 786-O-Hif-Luc cells, about 24 hours
[7] = SPA IC50, 150 nM Compound 211 probe

T1 sequence (Q99814 240-350 limits assumed): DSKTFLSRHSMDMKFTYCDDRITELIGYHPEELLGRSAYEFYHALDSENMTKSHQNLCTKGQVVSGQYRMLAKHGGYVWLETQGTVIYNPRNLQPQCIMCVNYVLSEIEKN

## NS(=O)(=O)c1ccc(Oc2cncc(F)c2)c2c1[C@H](O)C(F)(F)[C@@H]2F [Compound 105, (1R,3S)-1,2,2-trifluoro-7-[(5-fluoro-3-pyridyl)oxy]-3-hydroxy-indane-4-sulfonamide]
786-0 cells; [2]
  EC50: 160 nM
786-O-Hif-Luc cells; [3]
  EC50: 114 nM
[1]; [4]
  IC50: 18 nM

## O=S1(=O)c2ccc(Oc3cc(F)cc(Cl)c3)c(C(F)(F)F)c2C(O)C1(F)F (stereo not drawn) [Compound 124, 5-(3-Chloro-5-fluorophenoxy)-2,2-difluoro-3-hydroxy-4-(trifluoromethyl)-2,3-dihydrobenzo[b]thiophene 1,1-dioxide]
786-0 cells; [5]
  EC50: 89 nM
786-O-Hif-Luc cells; [6]
  EC50: 75 nM
[1]; [7]
  IC50: < 5 nM

## N=S1(=O)c2ccc(Oc3cc(F)cc(F)c3)c(C(F)F)c2C(O)C1(F)F (single isomer, unassigned) [Compound 162, 4-(Difluoromethyl)-5-(3,5-difluorophenoxy)-2,2-difluoro-3-hydroxy-1-imino-2,3-dihydro-1H-1λ^4-benzo[b]thiophene 1-oxide]
786-0 cells; [2]
  EC50: 90 nM
786-O-Hif-Luc cells; [3]
  EC50: 69 nM
[1]; [4]
  IC50: 29 nM

## N#Cc1c(Oc2cc(F)cc(Cl)c2)ccc2c1C(O)CS2(=O)=O (stereo not drawn) [Compound 117, 5-(3-chloro-5-fluorophenoxy)-3-hydroxy-2,3-dihydrobenzo[b]thiophene-4-carbonitrile 1,1-dioxide]
786-0 cells; [5]
  EC50: 333 nM
786-O-Hif-Luc cells; [6]
  EC50: 451 nM
[1]; [4]
  IC50: 61 nM

## O=S1(=O)c2ccc(Oc3cc(F)cc(Cl)c3)c(Br)c2[C@@H](O)C1(F)F [Compound 167, (3R)-4-Bromo-5-(3-chloro-5-fluoro-phenoxy)-2,2-difluoro-1,1-dioxo-3H-benzothiophen-3-ol]
786-0 cells; [5]
  EC50: 45 nM
786-O-Hif-Luc cells; [6]
  EC50: 37 nM
[1]; [7]
  IC50: < 5 nM

## N#Cc1cc(Oc2ccc(S(=O)(=O)C(F)(F)F)c3c2CC(F)(F)[C@H]3O)c[n+]([O-])c1 [Compound 31, (S)-3-cyano-5-((2,2-difluoro-1-hydroxy-7-((trifluoromethyl)sulfonyl)-2,3-dihydro-1H-inden-4-yl)oxy)pyridine 1-oxide]
786-0 cells; [2]
  EC50: 830 nM
786-O-Hif-Luc cells; [3]
  EC50: 160 nM
[1]; [4]
  IC50: 110 nM

## Cc1cc(C#N)cc(Oc2ccc(S(=O)(=O)CF)c3c2CC(F)(F)[C@H]3O)c1 [Compound 7, (S)-3-((2,2-Difluoro-7-((fluoromethyl)sulfonyl)-1-hydroxy-2,3-dihydro-1H-inden-4-yl)oxy)-5-methylbenzonitrile]
786-0 cells; [2]
  EC50: 70 nM
786-O-Hif-Luc cells; [3]
  EC50: 34 nM
[1]; [4]
  IC50: < 5 nM

## O=S(=O)(c1ccc(Oc2cc(F)c[n+]([O-])c2)c2c1[C@H](O)C(F)(F)C2)C(F)(F)F [Compound 74, (S)-3-((2,2-difluoro-1-hydroxy-7-((trifluoromethyl)sulfonyl)-2,3-dihydro-1H-inden-4-yl)oxonio)-5-fluoropyridine 1-oxide]
786-0 cells; [2]
  EC50: 140 nM
786-O-Hif-Luc cells; [3]
  EC50: 113 nM
[1]; [4]
  IC50: 16 nM

## CS(=O)(=O)c1ccc(Oc2cc(F)cc(C#N)c2)c2c1[C@H](O)C(F)(F)[C@@H]2F [Compound 56, 3-fluoro-5-[(1S,3R)-2,2,3-trifluoro-1-hydroxy-7-methylsulfonyl-indan-4-yl]oxy-benzonitrile]
786-0 cells; 786-0, read-out: VEGF ELISA EC50
  EC50: 6 nM
786-O-Hif-Luc cells; 24 h
  EC50: 3 nM
[1]; [4]
  IC50: < 5 nM

## CS(=O)(=NC#N)c1ccc(Oc2cncc(C#N)c2)c2c1[C@H](O)C(F)(F)[C@@H]2F (single isomer, unassigned) [Compound 83]
786-0 cells; [2]
  EC50: 95 nM
786-O-Hif-Luc cells; [3]
  EC50: 83 nM
[1]; [4]
  IC50: 14 nM

## CS(=O)(=O)c1ccc(Oc2cncc(C#N)c2)c2c1[C@H](O)[C@H](F)[C@@H]2F [Compound 97, 5-(((1S,2S,3R)-2,3-difluoro-1-hydroxy-7-(methylsulfonyl)-2,3-dihydro-1H-inden-4-yl)oxy)nicotinonitrile]
786-0 cells; [2]
  EC50: 163 nM
786-O-Hif-Luc cells; [3]
  EC50: 174 nM
[1]; [4]
  IC50: 74 nM

## N#Cc1cncc(Oc2ccc(S(=O)(=O)C(F)(F)F)c3c2C[C@@H](F)[C@H]3O)c1 [Compound 14, 5-(((1S,2R)-2-Fluoro-1-hydroxy-7-((trifluoromethyl)sulfonyl)-2,3-dihydro-1H-inden-4-yl)oxy)nicotinonitrile]
786-0 cells; [2]
  EC50: 69 nM
786-O-Hif-Luc cells; [3]
  EC50: 25 nM
[1]; [4]
  IC50: < 5 nM
